In ChEMBL document CHEMBL1145886, “Design, synthesis, and biological evaluation of 6-substituted-3-(4-methanesulfonylphenyl)-4-phenylpyran-2-ones: a novel class of diarylheterocyclic selective cyclooxygenase-2 inhibitors” (J Med Chem, 2003):
Calls of active or inactive are those of the source. The calls are words filed in the database; no cut-off is given here.

How the values were obtained:
[1] = target: T1, Prostaglandin G/H synthase 2 (Bos taurus, UniProt O62698)
T1 sequence (O62698 whole entry): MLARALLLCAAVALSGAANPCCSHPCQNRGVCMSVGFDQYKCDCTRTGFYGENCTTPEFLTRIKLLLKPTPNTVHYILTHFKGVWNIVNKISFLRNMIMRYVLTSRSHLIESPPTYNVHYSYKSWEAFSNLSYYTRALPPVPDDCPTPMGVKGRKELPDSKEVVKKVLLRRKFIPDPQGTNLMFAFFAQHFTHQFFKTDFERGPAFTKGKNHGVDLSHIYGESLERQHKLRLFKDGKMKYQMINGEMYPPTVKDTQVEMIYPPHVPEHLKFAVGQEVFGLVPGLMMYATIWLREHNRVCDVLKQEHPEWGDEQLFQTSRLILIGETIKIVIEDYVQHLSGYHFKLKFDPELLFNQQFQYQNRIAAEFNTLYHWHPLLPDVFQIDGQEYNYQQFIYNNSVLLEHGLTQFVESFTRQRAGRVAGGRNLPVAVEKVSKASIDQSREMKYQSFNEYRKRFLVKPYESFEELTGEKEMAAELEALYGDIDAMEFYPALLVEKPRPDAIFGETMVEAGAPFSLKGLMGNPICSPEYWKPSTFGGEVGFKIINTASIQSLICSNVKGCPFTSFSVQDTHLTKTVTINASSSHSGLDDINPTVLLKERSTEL
Description: In vitro inhibitory activity against prostaglandin G/H synthase 2 (COX-2)

[2] = target: T2, Prostaglandin G/H synthase 1 (Ovis aries, UniProt P05979)
T2 sequence (P05979 whole entry): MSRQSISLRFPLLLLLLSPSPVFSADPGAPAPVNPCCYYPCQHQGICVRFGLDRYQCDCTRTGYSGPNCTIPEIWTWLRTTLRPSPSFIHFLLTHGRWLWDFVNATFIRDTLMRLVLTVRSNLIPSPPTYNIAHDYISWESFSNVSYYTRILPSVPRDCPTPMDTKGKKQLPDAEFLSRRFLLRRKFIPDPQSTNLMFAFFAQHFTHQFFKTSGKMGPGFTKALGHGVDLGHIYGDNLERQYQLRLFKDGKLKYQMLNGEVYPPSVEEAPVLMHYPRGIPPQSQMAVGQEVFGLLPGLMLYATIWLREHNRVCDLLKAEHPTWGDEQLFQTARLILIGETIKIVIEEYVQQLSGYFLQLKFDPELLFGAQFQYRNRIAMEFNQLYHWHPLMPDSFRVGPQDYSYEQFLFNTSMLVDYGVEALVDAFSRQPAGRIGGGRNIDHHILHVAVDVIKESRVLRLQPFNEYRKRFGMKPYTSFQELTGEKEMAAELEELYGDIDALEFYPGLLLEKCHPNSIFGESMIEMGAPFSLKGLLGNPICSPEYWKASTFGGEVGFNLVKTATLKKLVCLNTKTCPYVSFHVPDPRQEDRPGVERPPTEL
Description: In vitro inhibitory activity against Prostaglandin G/H synthase 1 (COX-1)

[3] = system: Rattus norvegicus; assay: In vivo antiinflammatory activity against rat carrageenan-induced foot paw edema model at 5 hr following a 1 mg/kg oral dose; type: functional
[4] = system: Rattus norvegicus; assay: Analgesic activity was determined in rat using 4% sodium chloride-induced abdominal constriction assay at a duration of 60 min following a 1 mg/kg intraperitoneal dose; type: functional; conditions: Abdomen, ip, 1 h
[5] = system: Rattus norvegicus; assay: In vivo antiinflammatory activity against rat carrageenan-induced foot paw edema model at 3 hr following a 1 mg/kg oral dose; NA is inactive; type: functional, organism-based; set-up: dose 1 mg/kg; conditions: at 1 mg/kg
[6] = system: Rattus norvegicus; assay: Analgesic activity was determined in rat using 4% sodium chloride-induced abdominal constriction assay at a duration of 30 min following a 1 mg/kg intraperitoneal dose; type: functional; conditions: Abdomen, ip, 0.5 h
[7] = system: Rattus norvegicus; assay: In vivo antiinflammatory activity against rat carrageenan-induced foot paw edema model at 3 hr following a 1 mg/kg oral dose; type: functional

SMILES	IC50 [1] [µM]	IC50 [2] [µM]	inhibition in vivo at 1 mg/kg [3] [%]	inhibition in vivo at 1 mg/kg [4] [%]	inhibition [5]	inhibition in vivo at 1 mg/kg [6] [%]	inhibition in vivo at 1 mg/kg [7] [%]
CC(C)(C)Oc1cc(-c2ccc(F)cc2)c(-c2ccc(S(C)(=O)=O)cc2)c(=O)o1	20.4	68.5					
CC(C)COc1cc(-c2ccc(F)cc2)c(-c2ccc(S(C)(=O)=O)cc2)c(=O)o1	35	42.6					
COc1cc(-c2ccccc2)c(-c2ccc(S(C)(=O)=O)cc2)c(=O)o1			22	83.4	inactive	55.2	
CC(C)Cc1ccc(C(C)C(=O)O)cc1 (stereo not drawn) [IBUPROFEN]			41.5				56.2
CCSc1cc(-c2ccc(F)cc2)c(-c2ccc(S(C)(=O)=O)cc2)c(=O)o1	1.44	> 100	16.8	66		54.3	25.8
Cc1cc(-c2ccccc2)c(-c2ccc(S(C)(=O)=O)cc2)c(=O)o1			23.5	60.4		57	12.5
Cc1ccc(-c2cc(C(F)(F)F)nn2-c2ccc(S(N)(=O)=O)cc2)cc1 [CELECOXIB]			58.2	62		31.7	79.9
CC(C)c1cc(-c2ccc(F)cc2)c(-c2ccc(S(C)(=O)=O)cc2)c(=O)o1	13.6	15.7	69.1	20.7		50.9	35.8
Cc1cc(-c2ccc(F)cc2)c(-c2ccc(S(C)(=O)=O)cc2)c(=O)o1	125	201					
CCSc1cc(-c2ccccc2)c(-c2ccc(S(C)(=O)=O)cc2)c(=O)o1			19.5	77.4		81	9.2
CC(C)c1cc(-c2ccccc2)c(-c2ccc(S(C)(=O)=O)cc2)c(=O)o1			19.5	56.9		67.8	9.8
COc1cc(-c2ccc(F)cc2)c(-c2ccc(S(C)(=O)=O)cc2)c(=O)o1	59.5	> 1000	30	72.6		49	30.6
CC(C)Oc1cc(-c2ccc(F)cc2)c(-c2ccc(S(C)(=O)=O)cc2)c(=O)o1	83.6	560					

Further lines, with some results ahead:

IC50 [1] [µM]	IC50 [2] [µM]	SMILES	inhibition in vivo at 1 mg/kg [3] [%]	inhibition in vivo at 1 mg/kg [4] [%]	inhibition [5]	inhibition in vivo at 1 mg/kg [6] [%]	inhibition in vivo at 1 mg/kg [7] [%]
> 100	> 100	CCCSc1cc(-c2ccccc2)c(-c2ccc(S(C)(=O)=O)cc2)c(=O)o1					
1.8	3.1	CC(C)COc1cc(-c2ccccc2)c(-c2ccc(S(C)(=O)=O)cc2)c(=O)o1					
416	50.7	CS(=O)(=O)c1ccc(-c2c(-c3ccccc3)cc(OCc3ccc(Cl)cc3)oc2=O)cc1					
53.3	301	CS(=O)(=O)c1ccc(-c2c(-c3ccc(F)cc3)cc(OCc3ccc(Cl)cc3)oc2=O)cc1					
0.1	288	CCOc1cc(-c2ccc(F)cc2)c(-c2ccc(S(C)(=O)=O)cc2)c(=O)o1	67.8	75.7		42.8	32.7
2.7	> 100	CC(C)(C)Oc1cc(-c2ccccc2)c(-c2ccc(S(C)(=O)=O)cc2)c(=O)o1	30.1	80.9		73.8	29
